Experimental data reported in PubChem BioAssay AID2060620 (Molecular Pharmacology Branch, DTP, NCI, 2025).

System: 328373-195-R-J1-PDC complex spheroids, viability % test/control
Test: Anticancer human tumor 328373-195-R-J1-PDC patient-derived head and neck squamous carcinoma cell line growth inhibition [CLK]
Details: for IC50: curve of first compound; for viability, T/C: stronger effect = lower value
Method in brief: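 Multi-cell-type spheroids combined patient-derived tumor cells with HUVEC endothelial cells and human mesenchymal stem cells. Paired agents were dosed in half-log steps down from about clinical Cmax, or from 10 microM where Cmax was unknown.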

[1] = second compound 0.0316 µM, first compound 0.0316 µM
[2] = second compound 0.0316 µM, first compound 0.1 µM
[3] = second compound 0.0316 µM, first compound 0.316 µM
[4] = second compound 0.0316 µM, first compound 1 µM
[5] = second compound 0.0316 µM, first compound 3.16 µM
[6] = second compound 0.0316 µM, first compound 10 µM
[7] = second compound 0.1 µM, first compound 0.0316 µM
[8] = second compound 0.1 µM, first compound 0.1 µM
[9] = second compound 0.1 µM, first compound 0.316 µM
[10] = second compound 0.1 µM, first compound 1 µM
[11] = second compound 0.1 µM, first compound 3.16 µM
[12] = second compound 0.1 µM, first compound 10 µM
[13] = second compound 0.316 µM, first compound 0.0316 µM
[14] = second compound 0.316 µM, first compound 0.1 µM
[15] = second compound 0.316 µM, first compound 0.316 µM
[16] = second compound 0.316 µM, first compound 1 µM
[17] = second compound 0.316 µM, first compound 3.16 µM
[18] = second compound 0.316 µM, first compound 10 µM
[19] = second compound 1 µM, first compound 0.0316 µM
[20] = second compound 1 µM, first compound 0.1 µM
[21] = second compound 1 µM, first compound 0.316 µM
[22] = second compound 1 µM, first compound 1 µM
[23] = second compound 1 µM, first compound 3.16 µM
[24] = second compound 1 µM, first compound 10 µM
[25] = second compound 3.16 µM, first compound 0.0316 µM
[26] = second compound 3.16 µM, first compound 0.1 µM
[27] = second compound 3.16 µM, first compound 0.316 µM
[28] = second compound 3.16 µM, first compound 1 µM
[29] = second compound 3.16 µM, first compound 3.16 µM
[30] = second compound 3.16 µM, first compound 10 µM
[31] = second compound 10 µM, first compound 0.0316 µM
[32] = second compound 10 µM, first compound 0.1 µM
[33] = second compound 10 µM, first compound 0.316 µM
[34] = second compound 10 µM, first compound 1 µM
[35] = second compound 10 µM, first compound 3.16 µM
[36] = second compound 10 µM, first compound 10 µM
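Further: spheroids exposed to the agents for 7 days.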

Structure (SMILES): CC(CO)NC(=O)c1cc(-c2ccc(Cl)cc2)nn(-c2cnn(C)c2)c1=O (stereo unspecified) + CN1CCN(c2cc(C(=O)Nc3cc4cc(-c5cnn(C)c5)ccc4cn3)ccn2)CC1
- IC50 (second compound 0.0316 µM): > 10000 nM
- IC50 (second compound 0.1 µM): > 10000 nM
- IC50 (second compound 0.316 µM): < 31.6 nM
- IC50 (second compound 1 µM): < 31.6 nM
- IC50 (second compound 3.16 µM): < 31.6 nM
- IC50 (second compound 10 µM): < 31.6 nM
- viability, T/C [1]: 108%
- viability, T/C [2]: 99.5%
- viability, T/C [3]: 114%
- viability, T/C [4]: 106%
- viability, T/C [5]: 105%
- viability, T/C [6]: 97.6%
- viability, T/C [7]: 86.1%
- viability, T/C [8]: 92.1%
- viability, T/C [9]: 94.7%
- viability, T/C [10]: 98%
- viability, T/C [11]: 92.6%
- viability, T/C [12]: 82.6%
- viability, T/C [13]: 32.2%
- viability, T/C [14]: 39%
- viability, T/C [15]: 35.2%
- viability, T/C [16]: 39.5%
- viability, T/C [17]: 38%
- viability, T/C [18]: 33.9%
- viability, T/C [19]: 0.23%
- viability, T/C [20]: 0.27%
- viability, T/C [21]: 1.91%
- viability, T/C [22]: 1.81%
- viability, T/C [23]: 1.3%
- viability, T/C [24]: 2.16%
- viability, T/C [25]: 2.73%
- viability, T/C [26]: 1.98%
- viability, T/C [27]: 1.71%
- viability, T/C [28]: 0.57%
- viability, T/C [29]: 3.9%
- viability, T/C [30]: 2.11%
- viability, T/C [31]: 0.74%
- viability, T/C [32]: 0.62%
- viability, T/C [33]: 0.43%
- viability, T/C [34]: 1%
- viability, T/C [35]: 0.24%
- viability, T/C [36]: 3.1%

Structure (SMILES): CC(Nc1ccc2c(c1)OCCn1cc(N3C(=O)OCC3C(F)F)nc1-2)C(N)=O (stereo unspecified) + CN1CCN(c2cc(C(=O)Nc3cc4cc(-c5cnn(C)c5)ccc4cn3)ccn2)CC1
- IC50 (second compound 0.0316 µM): > 10000 nM
- IC50 (second compound 0.1 µM): 2420 nM
- IC50 (second compound 0.316 µM): < 31.6 nM
- IC50 (second compound 1 µM): < 31.6 nM
- IC50 (second compound 3.16 µM): < 31.6 nM
- IC50 (second compound 10 µM): < 31.6 nM
- viability, T/C [1]: 90.4%
- viability, T/C [2]: 88.7%
- viability, T/C [3]: 87.1%
- viability, T/C [4]: 78.4%
- viability, T/C [5]: 58.1%
- viability, T/C [6]: 53.7%
- viability, T/C [7]: 75.8%
- viability, T/C [8]: 74.3%
- viability, T/C [9]: 73.7%
- viability, T/C [10]: 67.2%
- viability, T/C [11]: 44.2%
- viability, T/C [12]: 45.4%
- viability, T/C [13]: 34.3%
- viability, T/C [14]: 28.9%
- viability, T/C [15]: 28.8%
- viability, T/C [16]: 23.8%
- viability, T/C [17]: 17.7%
- viability, T/C [18]: 17.5%
- viability, T/C [19]: 0.25%
- viability, T/C [20]: 0.23%
- viability, T/C [21]: 1.16%
- viability, T/C [22]: 0.41%
- viability, T/C [23]: 1.23%
- viability, T/C [24]: 1.08%
- viability, T/C [25]: 1.31%
- viability, T/C [26]: 0.16%
- viability, T/C [27]: 1.05%
- viability, T/C [28]: 0.11%
- viability, T/C [29]: 2.46%
- viability, T/C [30]: 2.43%
- viability, T/C [31]: 0.1%
- viability, T/C [32]: 1.44%
- viability, T/C [33]: 0.26%
- viability, T/C [34]: 0.2%
- viability, T/C [35]: 2.32%
- viability, T/C [36]: 1.83%

Structure (SMILES): COc1c(OCCCN2CCOCC2)ccc2c3n(c(=NC(=O)c4cnc(N)nc4)nc12)CCN3 + CN1CCN(c2cc(C(=O)Nc3cc4cc(-c5cnn(C)c5)ccc4cn3)ccn2)CC1
- IC50 (second compound 0.0316 µM): 126 nM
- IC50 (second compound 0.1 µM): 79.9 nM
- IC50 (second compound 0.316 µM): < 3.16 nM
- IC50 (second compound 1 µM): < 3.16 nM
- IC50 (second compound 3.16 µM): < 3.16 nM
- IC50 (second compound 10 µM): < 3.16 nM
- viability, T/C (second compound 0.0316 µM, first compound 0.00316 µM): 95.8%
- viability, T/C (second compound 0.0316 µM, first compound 0.01 µM): 93.9%
- viability, T/C [1]: 77.9%
- viability, T/C [2]: 52.7%
- viability, T/C [3]: 31.9%
- viability, T/C [4]: 9.52%
- viability, T/C (second compound 0.1 µM, first compound 0.00316 µM): 71.7%
- viability, T/C (second compound 0.1 µM, first compound 0.01 µM): 77.8%
- viability, T/C [7]: 63.5%
- viability, T/C [8]: 46.4%
- viability, T/C [9]: 23.2%
- viability, T/C [10]: 10.4%
- viability, T/C (second compound 0.316 µM, first compound 0.00316 µM): 32.5%
- viability, T/C (second compound 0.316 µM, first compound 0.01 µM): 35.3%
- viability, T/C [13]: 20.4%
- viability, T/C [14]: 17.1%
- viability, T/C [15]: 7.35%
- viability, T/C [16]: 4.17%
- viability, T/C (second compound 1 µM, first compound 0.00316 µM): 0.2%
- viability, T/C (second compound 1 µM, first compound 0.01 µM): 1.02%
- viability, T/C [19]: 0.29%
- viability, T/C [20]: 0.33%
- viability, T/C [21]: 0.18%
- viability, T/C [22]: 4.25%
- viability, T/C (second compound 3.16 µM, first compound 0.00316 µM): 0.08%
- viability, T/C (second compound 3.16 µM, first compound 0.01 µM): 3.15%
- viability, T/C [25]: 0.9%
- viability, T/C [26]: 0.09%
- viability, T/C [27]: 2.94%
- viability, T/C [28]: 0.12%
- viability, T/C (second compound 10 µM, first compound 0.00316 µM): 0.62%
- viability, T/C (second compound 10 µM, first compound 0.01 µM): 2.77%
- viability, T/C [31]: 0.15%
- viability, T/C [32]: 0.14%
- viability, T/C [33]: 1.52%
- viability, T/C [34]: 1.72%
